Test results taken from patent US7138361B2, “Herbicidal heterocycles” (E. I. du Pont de Nemours and Company, priority 2000, dated 2006).

Experiments:
Test in all cases: Test C flooded paddy test
Type in all cases: in vivo
[1] = test system: smallflower flatsedge (Cyperus difformis); details: for Flatsedge plant response rating: Flooded Paddy, scale 0 to 100, 0 no effect, 100 complete control; for Plant response rating, Flatsedge / Plant response rating (scale 0 to 100), Flatsedge: flooded paddy test; for Plant response rating, Flatsedge: scale 0 to 100 (0 no effect, 100 complete control)
How it was run: (§1)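 2-leaf-stage plants, flooded paddy; treated; greenhouse 12–14 days; compared with controls by eye; rated 0–100 (0 none, 100 complete control).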

[2] = test system: barnyardgrass (Echinochloa crus-galli); details: for Barnyardgrass plant response rating: Flooded Paddy, scale 0 to 100, 0 no effect, 100 complete control; for Plant response rating, Barnyardgrass / Plant response rating (scale 0 to 100), Barnyardgrass: flooded paddy test; for Plant response rating, Barnyardgrass: scale 0 to 100 (0 no effect, 100 complete control)
How it was run: as §1

[3] = test system: duck salad (Heteranthera limosa); details: for Ducksalad plant response rating: Flooded Paddy, scale 0 to 100, 0 no effect, 100 complete control; for Plant response rating, Ducksalad / Plant response rating (scale 0 to 100), Ducksalad: flooded paddy test; for Plant response rating, Ducksalad: scale 0 to 100 (0 no effect, 100 complete control)
How it was run: as §1

[4] = Rate 16 g/ha, visually evaluated after 12 to 14 days, 0 = no effect, 100 = complete control
[5] = under head Rate 16 g/ha, (own rate not given), after 12 to 14 days

Compound | Flatsedge plant response rating ([1]; Rate 250 g/ha) | Flatsedge plant response rating ([1]; Rate 500 g/ha) | Plant response rating, Flatsedge ([1]; Rate 62 g/ha) | Plant response rating, Flatsedge ([1]; Rate 125 g/ha) | Plant response rating (scale 0 to 100), Flatsedge [1, 4] | Plant response rating (scale 0 to 100), Flatsedge [1, 5] | Barnyardgrass plant response rating ([2]; Rate 250 g/ha) | Barnyardgrass plant response rating ([2]; Rate 500 g/ha) | Plant response rating, Barnyardgrass ([2]; Rate 62 g/ha) | Plant response rating, Barnyardgrass ([2]; Rate 125 g/ha) | Plant response rating (scale 0 to 100), Barnyardgrass [2, 4] | Plant response rating (scale 0 to 100), Barnyardgrass [2, 5] | Ducksalad plant response rating ([3]; Rate 250 g/ha) | Ducksalad plant response rating ([3]; Rate 500 g/ha) | Plant response rating, Ducksalad ([3]; Rate 62 g/ha) | Plant response rating, Ducksalad ([3]; Rate 125 g/ha) | Plant response rating (scale 0 to 100), Ducksalad [3, 4] | Plant response rating (scale 0 to 100), Ducksalad [3, 5]
CCC(C)c1ccn(C2OCN(c3cccc(C(F)(F)F)c3)C2=O)n1 (stereo not drawn) [Compound 24] | 100 | 100 | 100 | 100 | 100 | 100 | 100 | 100 | 100 | 100 | 100 | 80 | 100 | 100 | 60 | 100 | 50 | 50
CCC(CC)c1ccn(C2OCN(c3cccc(OC(F)(F)F)c3)C2=O)n1 (stereo not drawn) [Compound 68] | 100 | 100 | 100 | 100 | – | – | 100 | 100 | 90 | 100 | – | – | 100 | 100 | 100 | 100 | – | –
